# In patent US20110184018A1, “METHOD FOR TREATING PERIPHERAL NEUROPATHIC PAIN” (LOHOCLA RESEARCH CORPORATION, priority 2005, published 2011):
# pIC50, pKd, pKi: −log10 of the molar value. Like-named read-outs stand apart in the source and are kept apart here.
# Tests used:
# [1] = target: T1, glycine recognition site of the NMDA receptor complex (Rattus norvegicus, UniProt P35439); assay: [3H]5,7-DCKA binding assay; conditions: rat cortical membranes; none = no displacement at 100 μM
# T1 construct: The telencephalon (cerebral cortex, hippocampus, and striatum) was dissected and homogenized; from tissue; host or cells: rat telencephalon membranes (cerebral cortex, hippocampus, striatum), Triton X-100 treated
# Experimental: General receptor-binding procedures. Male Sprague-Dawley rats were decapitated and their brains removed rapidly. The telencephalon (cerebral cortex, hippocampus, and striatum) was dissected and homogenized in 20 volumes of ice-cold 0.32 M sucrose, 20 mM HEPES-KOH (pH 7.2 at room temperature) containing protease inhibitors ([…], 5 mg/mL antipain, 20 mg/mL soybean trypsin inhibitor, 500 μM benzamidine, […] aprotinin, and 500 μM phenylmethylsulfonyl fluoride) with a motor driven glass-TEFLON® fluorocarbon homogenizer (8-10 strokes at setting 1). The homogenate was centrifuged at 800 g for 10 minutes. The pellet was discarded and the supernatant was centrifuged at 20,000 g for 20 minutes. The resulting pellet was resuspended in 20 volumes of distilled water containing 500 μM benzamidine and centrifuged for 20 minutes at 7500 g. Then the supernatant and buffy coat were centrifuged three times (51,500 g for 20 minutes) in the presence of distilled water containing 500 μM benzamidine. All centrifugation steps were carried out at 4° C. The final pellet was frozen rapidly at −80° C.
# On the day of the assay, the pelleted membranes were resuspended in 20 volumes of 50 mM HEPES-KOH buffer, pH 7.4, and incubated for 20 minutes at 37° C. followed by centrifugation (51,500 g for 20 minutes). Membranes were then resuspended in 50 mM HEPES-KOH buffer (pH 7.8) containing 0.08% Triton X-100. After stirring for 30 minutes at 4° C., the membranes were pelleted by centrifugation (100,000 g for 20 minutes). The membranes were then washed twice by resuspension in the buffer appropriate for the binding assay and centrifugation (100,000 g for 20 minutes). The final pellet was suspended in assay buffer. The amount of protein in the final membrane preparation was determined with the bicinchoninic acid method (BCA; Pierce Chemical Co., Rockford, Ill.). The final protein concentration used for our studies was 300 to 600 μg/mL. Receptor-binding protocols described below were adapted from published procedures. For all assays, the samples, all in duplicate or triplicate, were placed into scintillation vials containing 5.5 mL of scintillation liquid (Ultima Gold; Packard Instrument Co., Inc., Meriden, Conn.) and the retained radioactivity was determined by conventional scintillation spectroscopy with a Beckman TA-6000 scintillation counter. Radio-ligands were purchased from DuPont-NEN (Boston, Mass.).
# [^3H]5,7-Dichlorokynurenic acid (5,7-DCKA)-binding assay. The glycine recognition site of the NMDA receptor complex was labeled with the competitive antagonist [^3H]5,7-dichlorokynurenic acid (5,7-DCKA). […]
# Data Analysis. The data were analyzed with SigmaPlot 5.0 and SigmaStat 2.0 (Jandel Scientific, Corte Madera, Calif.) software. […]
# [2] = target: rat brain type IIA Na+ channel (Nav1.2) (Rattus norvegicus, UniProt P04775); assay: Whole-cell patch clamp recordings of Na+ currents in CNaIIA-1 cells; type: cell-based
# Chain of rat brain type IIA Na+ channel (Nav1.2) (P04775 whole entry): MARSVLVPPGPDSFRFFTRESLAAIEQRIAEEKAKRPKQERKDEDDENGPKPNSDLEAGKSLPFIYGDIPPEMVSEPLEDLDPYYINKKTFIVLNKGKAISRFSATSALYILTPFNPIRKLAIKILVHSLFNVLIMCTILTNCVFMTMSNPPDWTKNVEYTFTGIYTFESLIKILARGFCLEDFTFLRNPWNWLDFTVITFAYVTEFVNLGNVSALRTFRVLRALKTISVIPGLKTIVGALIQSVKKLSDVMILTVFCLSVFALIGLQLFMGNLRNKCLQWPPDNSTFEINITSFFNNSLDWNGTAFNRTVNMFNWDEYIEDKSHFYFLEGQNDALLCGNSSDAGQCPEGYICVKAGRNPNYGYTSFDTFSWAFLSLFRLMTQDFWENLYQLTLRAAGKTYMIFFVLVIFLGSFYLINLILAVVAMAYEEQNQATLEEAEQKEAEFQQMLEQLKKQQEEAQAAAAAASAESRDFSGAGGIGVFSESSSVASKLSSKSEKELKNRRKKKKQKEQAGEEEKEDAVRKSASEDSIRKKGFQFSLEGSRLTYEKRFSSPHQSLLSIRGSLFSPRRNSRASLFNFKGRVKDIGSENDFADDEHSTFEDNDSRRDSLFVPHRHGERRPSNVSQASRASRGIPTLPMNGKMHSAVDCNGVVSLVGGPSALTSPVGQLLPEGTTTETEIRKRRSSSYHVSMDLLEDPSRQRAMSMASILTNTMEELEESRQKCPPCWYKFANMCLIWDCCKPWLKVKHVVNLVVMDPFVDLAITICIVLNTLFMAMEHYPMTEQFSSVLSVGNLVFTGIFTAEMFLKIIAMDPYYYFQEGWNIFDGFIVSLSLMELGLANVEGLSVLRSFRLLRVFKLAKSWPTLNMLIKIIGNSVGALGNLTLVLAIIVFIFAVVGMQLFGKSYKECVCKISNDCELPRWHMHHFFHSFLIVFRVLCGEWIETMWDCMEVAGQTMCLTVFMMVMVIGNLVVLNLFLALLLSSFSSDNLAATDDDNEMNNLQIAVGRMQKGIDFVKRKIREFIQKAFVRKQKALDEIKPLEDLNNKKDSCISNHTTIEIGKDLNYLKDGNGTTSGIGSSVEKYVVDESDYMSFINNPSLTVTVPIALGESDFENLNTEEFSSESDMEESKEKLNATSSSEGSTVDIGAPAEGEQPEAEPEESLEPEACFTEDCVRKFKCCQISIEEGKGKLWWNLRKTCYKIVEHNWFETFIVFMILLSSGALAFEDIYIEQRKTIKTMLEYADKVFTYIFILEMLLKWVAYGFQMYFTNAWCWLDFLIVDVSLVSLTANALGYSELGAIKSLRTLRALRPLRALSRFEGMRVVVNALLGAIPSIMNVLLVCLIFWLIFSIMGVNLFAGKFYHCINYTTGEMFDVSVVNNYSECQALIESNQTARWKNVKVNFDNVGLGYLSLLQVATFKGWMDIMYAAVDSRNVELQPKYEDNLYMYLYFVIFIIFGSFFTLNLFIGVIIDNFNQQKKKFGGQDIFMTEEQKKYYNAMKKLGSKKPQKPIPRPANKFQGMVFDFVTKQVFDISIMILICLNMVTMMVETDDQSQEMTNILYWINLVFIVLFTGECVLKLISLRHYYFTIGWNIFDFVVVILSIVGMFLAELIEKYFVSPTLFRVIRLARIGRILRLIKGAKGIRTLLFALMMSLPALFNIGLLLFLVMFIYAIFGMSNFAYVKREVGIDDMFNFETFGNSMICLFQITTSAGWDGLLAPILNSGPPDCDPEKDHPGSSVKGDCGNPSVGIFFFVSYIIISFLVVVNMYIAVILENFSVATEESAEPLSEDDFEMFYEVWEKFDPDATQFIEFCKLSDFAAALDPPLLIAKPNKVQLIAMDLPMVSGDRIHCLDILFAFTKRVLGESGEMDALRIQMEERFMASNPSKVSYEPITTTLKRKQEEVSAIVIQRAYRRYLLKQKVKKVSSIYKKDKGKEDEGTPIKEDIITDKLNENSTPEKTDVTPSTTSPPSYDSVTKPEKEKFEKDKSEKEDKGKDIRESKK
# [3] = target: voltage sensitive sodium channel (neurotoxin receptor Site 2); assay: [3H]BTX binding assay; conditions: rat cortical synaptosomes
# CB1 receptor = target: T2, CB1 receptor (Homo sapiens, UniProt P21554); assay: cAMP accumulation in HEK293 cells transfected with AC5, D1AR, CB1R; type: cell-based
# T2 construct: expressed in transfected cells; host or cells: HEK293 cells (ATCC), calcium phosphate transfection
# T2 sequence (P21554 whole entry): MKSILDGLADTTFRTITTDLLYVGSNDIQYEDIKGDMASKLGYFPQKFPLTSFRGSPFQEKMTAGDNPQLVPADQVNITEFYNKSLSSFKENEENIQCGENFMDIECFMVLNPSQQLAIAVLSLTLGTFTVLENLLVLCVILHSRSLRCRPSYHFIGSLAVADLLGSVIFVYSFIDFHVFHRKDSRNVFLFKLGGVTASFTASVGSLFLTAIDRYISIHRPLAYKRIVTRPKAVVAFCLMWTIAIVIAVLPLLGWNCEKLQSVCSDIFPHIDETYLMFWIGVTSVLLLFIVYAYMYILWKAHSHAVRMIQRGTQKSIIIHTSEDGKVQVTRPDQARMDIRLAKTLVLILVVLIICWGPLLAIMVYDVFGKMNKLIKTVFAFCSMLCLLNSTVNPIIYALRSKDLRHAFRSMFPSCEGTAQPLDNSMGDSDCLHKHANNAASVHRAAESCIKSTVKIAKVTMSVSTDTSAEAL
# Experimental: HEK293 cells were obtained from American Type Culture Collection (Manassas, Va.). Cells were cultured in 225 mL flasks containing 39 mL of MEM containing 10% fetal bovine serum, penicillin (50 μg/mL), streptomycin (50 μg/mL), and neomycin (100 μg/mL). The flasks were maintained in a humidified atmosphere of 95% air and 5% CO2 at about 37° C. Transfection was performed by the method of DNA precipitation with calcium phosphate 1 day after HEK 293 cells were transferred to small flasks (75 mL) at the density of approximately 60 to 80% confluence. Plasmid DNA containing AC5 or AC7 cDNA (11.5 μg), plasmid DNA carrying the human D1A dopamine receptor cDNA (3 μg) and CB1 receptor cDNA (3 μg), and pCMS-EGFP (1 μg) were used for each small flask, which also contained 13 mL of the culture medium. The amount of DNA per flask was adjusted to a total of 26 μg using vector DNA. Transfection efficiency was routinely monitored by observing the expression of enhanced green fluorescent protein (GFP) by an epifluorescence microscope equipped with a filter set (excitation, 480/40 nm; emission, 535/50 nm) and a dichroic mirror (T89002bs; Chroma Technology, Rockingham, Vt.). After transfection, cells were harvested and transferred into 24-well culture plates. The transfected cells were cultured for 1 to 2 days before the cAMP accumulation experiments were carried out.
# After labeling and intracellular ATP pool with 3.0 μCi/mL of [2,8-^3H]adenine, cells were incubated in DMEM (0.5 mL/well) without phenol red, buffered to pH 7.1 with 20 mM of 4-(2-hydroxyethyl)-1-piperazineethanesulfonic acid (HEPES) for 30 minutes at 37° C.
# To determine the effect of the DCUK-OEt or other compounds on the function of the CB1 receptor, the cells were treated with the phosphodiesterase inhibitor, IBMX (500 μM), for 10 minutes at 37° C., followed by the addition of D1A receptor agonist, dopamine (DA) (1 μM), in the presence of a known CB1 agonist or agonist, plus a CB1 antagonist for 5 minutes. The following agonist and antagonist were used: CB1 receptor agonist, ACEA (10 μM); CB1 receptor antagonist, AM251 (10 μM). In additional reactions, the addition of DA was accompanied by addition of DCUK-OEt (10 μM) or DCUK-OEt together with AM251 (10 μM). In a final set of reactions DCUK-OEt was added with ACEA (10 μM), to assess whether DCUK-OEt acted like a CB1 receptor antagonist. The reactions were terminated by adding 50 μL of 100% (w/v) tricholoroacetic acid. ATP and cAMP were separated through Dowex 50 and neutral alumina columns as is known in the art, and quantified by liquid scintillation counting. [α-^32P]ATP and 8-[^14C]cAMP were added as internal standards to monitor the recovery of ATP and cAMP through column chromatography. Conversion of [^3H] ATP into [^3H]cAMP was calculated as follows: [^3H]cAMP (%)=[^3H]cAMP (cpm)/([^3H]ATP (cpm)+[^3H]cAMP (cpm))·100. [^3H]cAMP (%) values obtained from cells which underwent only the 10-minute IBMX incubation period before the addition of trichloroacetic acid, were used as blanks and these values were subtracted from the values obtained from cells which underwent the 1-minute incubation period with DA in the presence or absence of other agonists/antagonists. Each condition was assayed in triplicate and the whole experimental procedure was repeated 4 times. The ratio of cAMP accumulation was calculated for all treatment groups versus DA treatment group (100%) and the values were averaged among the four batches of experiments.
# DBA/2 mice = assay: Audiogenic seizures; type: in vivo, mouse; conditions: i.p., 100 and 500 mg/kg
# Experimental: Audiogenic Seizures. Male DBA/2J mice (20-22 days old; 8-12 g) were used to evaluate the effects of DCUK-OMe in an animal model of partial seizures. Mice were dosed (i.p.) with vehicle (5% TWEEN 80/0.5% methylcellulose), 100 mg/kg DCUK-OMe, or 500 mg/kg DCUK-OMe, 30 minutes before noise stimulation. Mice were placed into a cylindrical Plexiglas testing chamber (15×50 cm, diameter 3 height) enclosed in a sound-attenuated box. After a 15- to 20-second habituation period, a high-intensity auditory stimulus (ringing doorbell; 12-16 kHz, 109 db) was activated for 30 seconds or until tonic hindlimb extension occurred. The seizure response in these mice is characterized by a progression of a wild running behavior, followed by loss of righting and clonus of the forelimbs, followed by tonic hindlimb extension, and finally respiratory arrest.
# [4] = Solubility limit in aqueous assay buffers; type: physicochemical; conditions: aqueous assay buffers (incubation or bath solutions), aqueous buffer, kinetic from dmso stock, DMSO 0.2 to 1%, read-out: concentrations that could not be tested due to limited solubility in aqueous buffers
# Experimental: Drugs. For all in vitro assays, stock solutions of DCUKA or DCUK-OMe were prepared fresh daily in dimethylsulfoxide (DMSO) then diluted into the incubation or bath solutions with sonication to the desired concentrations for experiments. Due to their limited solubility in aqueous buffers, DCUKA concentrations >300 μM and DCUK-OMe concentrations >100 μM could not be tested. In those assays where high ionic strength buffers were used, i.e., [^3H]batrachiotoxin (BTX) binding in depolarized synaptosomes, concentrations >50 μM could not be tested. The final concentration of DMSO in the assays ranged from 0.2 to 1%. In all assays, drug effects were compared with effects measured in the presence of the identical concentration of DMSO without drug.
# [5] = none = no displacement at 100 μM, read-out: IC50 [3H]BTX binding
smiles,measurement,setting,value
"NC(=O)N1c2ccccc2C=Cc2ccccc21 [CBZ, carbamazepine, reference compound]","IC50 [3H]5,7-DCKA binding",[1],none
same,pKd,[2],3.40
same,pKi,[2],4.84
same,pIC50,"[3]; depolarizing conditions (135 mM KCl), read-out: IC50 [3H]BTX binding under depolarizing conditions (value in parentheses)",4.25
same,pIC50,[3]; [5],4.15
"O=C(O)c1cc(=O)c2c(Cl)cc(Cl)cc2[nH]1 [5,7-DCKA, 5,7-dichlorokynurenic acid, reference compound]",pIC50,[1],6.96
same,IC50 [3H]BTX binding,[3]; none = no displacement at 100 μM,none
"CCCCC/C=C\C/C=C\C/C=C\C/C=C\CCCC(=O)NCCCl [ACEA, reference compound]",effect on DA stimulated cAMP production with AM251 added,CB1 receptor; AM251 10 μM,the effect of ACEA was reversed
same,effect on DA stimulated cAMP production,"CB1 receptor; dopamine 1 μM, compound 10 μM",reduced cAMP production
"COC(=O)c1cc(NC(=O)N(c2ccccc2)c2ccccc2)c2c(Cl)cc(Cl)cc2n1 [DCUK-OMe, N,N-diphenyl-4-ureido-5,7-dichloro-2-carboxy quinoline methyl ester]",protection against audiogenic seizures,DBA/2 mice,protection against audiogenic seizures
same,"IC50 [3H]5,7-DCKA binding",[1],none
same,solubility,[4],> 100 µM
same,pIC50,[3]; [5],4.60
